Reference: ChEMBL document CHEMBL3817739, “Synthesis and cytotoxic evaluation of several oleanolic aciduracil/thymine conjugates” (Medchemcomm, 2016)

Key:
[1] = test system: HepG2; assay: Cytotoxicity against human HepG2 cells assessed as inhibition of cell proliferation after 72 hrs by MTT assay; type: functional, cell-based; settings: HepG2, 72 h
[2] = test system: A549; assay: Cytotoxicity against human A549 cells assessed as inhibition of cell proliferation after 72 hrs by MTT assay; type: functional, cell-based; settings: A549, 72 h
[3] = Cytotoxicity against human BGC823 cells assessed as inhibition of cell proliferation after 72 hrs by MTT assay; type: functional, cell-based; settings: BGC-823, 72 h
[4] = test system: MCF7; assay: Cytotoxicity against human MCF7 cells assessed as inhibition of cell proliferation after 72 hrs by MTT assay; type: functional, cell-based; settings: MCF7, 72 h
[5] = Cytotoxicity against human PC3 cells assessed as inhibition of cell proliferation after 72 hrs by MTT assay; type: functional, cell-based, PC-3
[6] = Homo sapiens, PC-3, 72 h, read-out: IC50

SMILES | IC50 [1] [µM] | IC50 [2] [µM] | IC50 [3] [µM] | IC50 [4] [µM] | IC50 [5, 6] [µM] | IC50 ([5]; pc-3)
Cc1cn(CCCCCCCCOC(=O)[C@]23CCC(C)(C)C[C@H]2C2=CC[C@@H]4[C@@]5(C)CC[C@H](O)C(C)(C)[C@@H]5CC[C@@]4(C)[C@]2(C)CC3)c(=O)[nH]c1=O | 8.72 | 1.11 | 0.29 | 16.1 | 0.23 | 
O=c1[nH]cc(F)c(=O)[nH]1 [FLUOROURACIL] | 55.7 | 22.6 | 8.82 | 21.5 | 12.2 | 
CC1(C)CC[C@]2(C(=O)OCCn3ccc(=O)n(CCOC(=O)[C@]45CCC(C)(C)C[C@H]4C4=CC[C@@H]6[C@@]7(C)CC[C@H](O)C(C)(C)[C@@H]7CC[C@@]6(C)[C@]4(C)CC5)c3=O)CC[C@]3(C)C(=CC[C@@H]4[C@@]5(C)CC[C@H](O)C(C)(C)[C@@H]5CC[C@]43C)[C@@H]2C1 | 111 | 9.21 | 0.86 | 29.8 |  | Not Active
CC1(C)CC[C@]2(C(=O)OCCn3ccc(=O)[nH]c3=O)CC[C@]3(C)C(=CC[C@@H]4[C@@]5(C)CC[C@H](O)C(C)(C)[C@@H]5CC[C@]43C)[C@@H]2C1 | 15.2 | 0.36 | 0.37 | 45.9 | 9.61 | 
Cc1cn(CCOC(=O)[C@]23CCC(C)(C)C[C@H]2C2=CC[C@@H]4[C@@]5(C)CC[C@H](O)C(C)(C)[C@@H]5CC[C@@]4(C)[C@]2(C)CC3)c(=O)[nH]c1=O | 5.41 | 35.1 | 0.16 | 10.2 | 1.93 | 
Cc1cn(CCCCOC(=O)[C@]23CCC(C)(C)C[C@H]2C2=CC[C@@H]4[C@@]5(C)CC[C@H](O)C(C)(C)[C@@H]5CC[C@@]4(C)[C@]2(C)CC3)c(=O)n(CCCCOC(=O)[C@]23CCC(C)(C)C[C@H]2C2=CC[C@@H]4[C@@]5(C)CC[C@H](O)C(C)(C)[C@@H]5CC[C@@]4(C)[C@]2(C)CC3)c1=O | 3.02 | < 0.1 | 16 | 3.69 | 1.28 | 
CC1(C)CC[C@]2(C(=O)O)CC[C@]3(C)C(=CC[C@@H]4[C@@]5(C)CC[C@H](O)C(C)(C)[C@@H]5CC[C@]43C)[C@@H]2C1 [OLEANOLIC_ACID] | 15.9 | 16.3 | 23.7 | 12.6 | 72.7 | 
CC1(C)CC[C@]2(C(=O)OCCCCn3ccc(=O)[nH]c3=O)CC[C@]3(C)C(=CC[C@@H]4[C@@]5(C)CC[C@H](O)C(C)(C)[C@@H]5CC[C@]43C)[C@@H]2C1 | 4.21 | 0.11 | 0.93 | 70.4 | 1.45 | 
CC1(C)CC[C@]2(C(=O)OCCCCCCCCn3ccc(=O)n(CCCCCCCCOC(=O)[C@]45CCC(C)(C)C[C@H]4C4=CC[C@@H]6[C@@]7(C)CC[C@H](O)C(C)(C)[C@@H]7CC[C@@]6(C)[C@]4(C)CC5)c3=O)CC[C@]3(C)C(=CC[C@@H]4[C@@]5(C)CC[C@H](O)C(C)(C)[C@@H]5CC[C@]43C)[C@@H]2C1 | 10.3 | 37.1 | 0.27 | 3.78 | 22.2 | 
Cc1cn(CCCCCCOC(=O)[C@]23CCC(C)(C)C[C@H]2C2=CC[C@@H]4[C@@]5(C)CC[C@H](O)C(C)(C)[C@@H]5CC[C@@]4(C)[C@]2(C)CC3)c(=O)n(CCCCCCOC(=O)[C@]23CCC(C)(C)C[C@H]2C2=CC[C@@H]4[C@@]5(C)CC[C@H](O)C(C)(C)[C@@H]5CC[C@@]4(C)[C@]2(C)CC3)c1=O | 4.84 | < 0.1 | 0.62 | 33.6 | 0.87 | 
Cc1cn(CCCCCCOC(=O)[C@]23CCC(C)(C)C[C@H]2C2=CC[C@@H]4[C@@]5(C)CC[C@H](O)C(C)(C)[C@@H]5CC[C@@]4(C)[C@]2(C)CC3)c(=O)[nH]c1=O | 5.09 | < 0.1 | 0.37 | 4.01 | 8.37 | 
Cc1cn(CCCCOC(=O)[C@]23CCC(C)(C)C[C@H]2C2=CC[C@@H]4[C@@]5(C)CC[C@H](O)C(C)(C)[C@@H]5CC[C@@]4(C)[C@]2(C)CC3)c(=O)[nH]c1=O | 2.41 | 4.73 | 1.13 | 1.03 | 0.43 | 
CC1(C)CC[C@]2(C(=O)OCCCCCCn3ccc(=O)n(CCCCCCOC(=O)[C@]45CCC(C)(C)C[C@H]4C4=CC[C@@H]6[C@@]7(C)CC[C@H](O)C(C)(C)[C@@H]7CC[C@@]6(C)[C@]4(C)CC5)c3=O)CC[C@]3(C)C(=CC[C@@H]4[C@@]5(C)CC[C@H](O)C(C)(C)[C@@H]5CC[C@]43C)[C@@H]2C1 | 0.99 | 6.98 | 0.68 | < 0.1 | 15.5 | 
Cc1cn(CCCCCCCCOC(=O)[C@@]23CCC(C)(C)C[C@@H]2C2=CC[C@H]4[C@]5(C)CC[C@@H](O)C(C)(C)[C@H]5CC[C@]4(C)[C@@]2(C)CC3)c(=O)n(CCCCCCCCOC(=O)[C@@]23CCC(C)(C)C[C@@H]2C2=CC[C@H]4[C@]5(C)CC[C@@H](O)C(C)(C)[C@H]5CC[C@]4(C)[C@@]2(C)CC3)c1=O | 4.83 | < 0.1 | 3.11 | 4.45 | 20 | 
CC1(C)CC[C@]2(C(=O)OCCCCCCCCn3ccc(=O)[nH]c3=O)CC[C@]3(C)C(=CC[C@@H]4[C@@]5(C)CC[C@H](O)C(C)(C)[C@@H]5CC[C@]43C)[C@@H]2C1 | 1.05 | 8.47 | 14.9 | < 0.1 | 20.9 | 
CC1(C)CC[C@]2(C(=O)OCCCCn3ccc(=O)n(CCCCOC(=O)[C@]45CCC(C)(C)C[C@H]4C4=CC[C@@H]6[C@@]7(C)CC[C@H](O)C(C)(C)[C@@H]7CC[C@@]6(C)[C@]4(C)CC5)c3=O)CC[C@]3(C)C(=CC[C@@H]4[C@@]5(C)CC[C@H](O)C(C)(C)[C@@H]5CC[C@]43C)[C@@H]2C1 | 3.95 | 4.09 | 0.15 | 130 | 4.79 | 
Cc1cn(CCOC(=O)[C@]23CCC(C)(C)C[C@H]2C2=CC[C@@H]4[C@@]5(C)CC[C@H](O)C(C)(C)[C@@H]5CC[C@@]4(C)[C@]2(C)CC3)c(=O)n(CCOC(=O)[C@]23CCC(C)(C)C[C@H]2C2=CC[C@@H]4[C@@]5(C)CC[C@H](O)C(C)(C)[C@@H]5CC[C@@]4(C)[C@]2(C)CC3)c1=O | 5.19 | 0.79 | 1.89 | 3.02 | 1.16 | 
